# Numbers after ± are expanded uncertainties.
# Conditions: Crystal 1; visual observation
row,Normal melting temperature [°C],Structure (SMILES)
1,-4.14 ± 0.5,CCCCCCCCCCCCC [tridecane]
2,5.90 ± 0.5,c1ccccc1 [benzene]

# — the NIST ThermoML archive (doi:10.1021/je050039p)
